Measured values as given in patent US20190350955A1, “METHODS AND PHARMACEUTICAL COMPOSITIONS FOR THE TREATMENT OF CARDIOMYOPATHIES” (INSERM (Institut National de la Sante et de la Recherche …, priority 2016, published 2019).

Experiments:
Assay type in all cases: in vivo, mouse
SRF^HKO mice [1] = assay: RT-qPCR gene expression in SRF HKO heart
Text: (§1) Transgenic mice. All experiments with animals conformed to the Directive 2010/63/EU of the European Parliament and were approved by the ethics committee Charles Darvin #5 (agreement 00369.01). SRF^HKO mice bear the tamoxifen-inducible α-MHC-MerCrMer transgene and the Siffloxed allele (Sf/Sf) as described previously (Parlakian et al. (2005). Temporally controlled onset of dilated cardiomyopathy through disruption of the SRF gene in adult heart. Journal 112, 2930-2939; Tritsch et al. (2013). An SRF/miR-1 axis regulates NCX1 and Annexin A5 protein levels in the normal and failing heart. Journal 98, 372-380). Transgenic mice have been bred for more than 20 generations in C57BL/6N background. The mice were housed in standard animal facility (CEF. Hôpital Pitié Salpétrière, agreement A-75-13-15, 75013 Paris), under a 12-h dark/light cycle. Tamoxifen (Sigma T5648) was administrated by i.p. injection at a dose of 0.7 mg diluted in 100 μl peanut oil at day (D) 0, D1 and D2. (Sf/Sf) littermates injected with tamoxifen at the same time than mutant were used as controls.
Nicotinamide and nicotinamide riboside i.p. administration. Nicotinamide was diluted in saline at 300 mM. Nicotinamide riboside (NR) bromide salt stock solution (1M) was in 10 mM citric acid pH 6.0. For injection 3 volumes of NR stock solution was mixed extemporaneously with 7 volumes of PBS to obtain a 300 mM injectable solution at pH 7.2. Mice were injected daily at a dose of 1 μmole/g body weight.
SRF^HKO and control (Sf/Sf) mice were administered either rodent maintenance SAFE A04 diet containing 3.10% crude fat. 16.10% crude proteins. 26% starch and 1.9% sugar (Scientific Animal Food Engineering, Paris, France) or SAFE # A04 diet supplemented with NR. NR was provided by Chromadex under brand name NIAGEN (Irvine Calif. USA). The soft pellets were manually prepared every 5 days by mixing 1.65 g of NR into 500 g of powdered SAFE A04 diet and 235 ml of water to reach 2.24 mg of NR/g (wet weight). Control diet was prepared in the same way omitting NR. Mice had ad libitum access to food and water. Mice (average body weight 31.3±0.82 g, no difference between groups) consumed an average of 6 g of soft food per day, reaching a daily intake of 450 mg NR/kg. No difference in food intake was observed between SRF^HKO and control mice.
(§2) cDNAs were reverse transcribed from RNA (1.5 μg) extracted in TRIzol (Thermofisher) from cell cultures and tissues using the Superscript II Reverse Transcriptase (Life Technologies). Quantitative PCR was carried out on a Light Cycler 480 (Roche Diagnostics) using Fast Start SYBR Green Master (Roche Diagnostics). Quantification of gene expression was calculated as R=2^ΔCt(Ref Cp−target Cp), with Hprt used as a as reference. Primers were designed using the NCBI Primer-BLAST software. Primer sequences are available on request.

TAC mice [2] = assay: RT-qPCR of Nmrk2, Nmrk1, Nampt mRNA after TAC; details: 6 weeks after surgery, NR 400 mg/kg/day
Procedure: (§3) Transverse aorta constriction was performed in 2 month-old male mice under anesthesia (ketamine 100 mg/kg, xylazin 16 mg/kg). Skin was opened above the sternum and the upper part of the sternum was cut on a length of 2 mm allowing the mouse to breath without the need of a ventilator. A surgical suture was passed under the aortic cross between the right brachiocephalic (innominate) artery and left common carotid artery and a 27-½ gauge blunt needle was placed parallel to the wall of the aortic cross as a calibrator. Two loose knots were tied around the aortic cross and the needle. The first knot was quickly tied against the needle, followed by the second and the needle was promptly removed in order to produce a constriction of 0.4 mm in diameter. In sham, mice the procedure was the same except for the constriction of the aorta. NR treatment was started 2 days after the TAC or SHAM surgery.
as §2, with “Primer sequences are available on request.” left out

SRF^HKO mice [3] = assay: Myocardial NAD+ levels in SRF HKO mice (NAD recycling assay)
Text: as §1, with “(Sf/Sf) littermates injected with tamoxifen at the same time than mutant were used as controls.” left out
(§4) Tissue frozen powder was resuspended in 75% ethanol, 25% HEPES 10 mM pH 7.1, buffer (20 μl/mg of tissue). […] After adjustment of dilution factors, NADH levels were calculated by substracting the NAD^+ concentration to the non-heated ethanolic extract values: NADH=NADt (non heated)−NAD^+ (heated).
For both types of extracts (buffered ethanol or HClO4) we added 100 μL of reaction buffer (600 mM ethanol, 0.5 mM 3-(4.5-dimethylthiazol-2-yl)-2.5-diphenyltetrazolium bromide (MTT), 2 mM phenazine ethosulfate (PES), 120 mM Bicine (pH 7.8), yeast alcohol dehydrogenase (SIGMA A3263>300 u/mg.) 0.05 mg/ml. Kinetics of the reaction (OD at 550 nm, every 30 seconds for 40 minutes) was followed on a TECAN Infinite F500 microplate reader. NAD was quantified in duplicates for each sample by comparison to a range of standard NAD^+ concentration using linear regression curve equation method between NAD^+ standard concentrations and the slope of the reaction in OD units/sec. […] Cell extracts were quantified for protein concentration determined by Bradford assay.

TAC mice [4] = assay: Myocardial NAD+ levels after TAC; details: 6 weeks after TAC, NR treated TAC group vs non treated CD TAC group
Procedure: as §3
as §4, with “tissue). Extracts were warmed 5 min at 80° C., then directly cold on ice and centrifuge 5 min at 16 000 g. Tissues extracts were normalized on the weight of tissue used for extraction.” for “tissue).”, “(heated). […]” for “(heated).”

Compound: NC(=O)c1ccc[n+]([C@@H]2O[C@H](CO)[C@@H](O)[C@H]2O)c1 [NR, nicotinamide riboside]
- expression level of the NADPH oxidase gene Nox4 (SRF^HKO mice [1]; NR diet, heart of SRF HKO mice): increased
- expression level of the Nfel2 gene encoding NRF2 and its target gene metallothionein 2 (SRF^HKO mice [1]; NR diet, heart of SRF HKO mice): increased
- expression level of G6pdx (SRF^HKO mice [1]; SRF HKO mice under the NR diet): maintained at higher level than in controls
- Srf and Nmrk2 expression levels (SRF^HKO mice [1]; i.p. administration from D8 to D15): not changed
- Nmrk2, Nmrk1 and Nampt mRNA levels (TAC mice [2]): no impact
- myocardial NAD (SRF^HKO mice [3]; NR-enriched food (0.22%) from D5 to D50): protected against the drop in NAD
- myocardial NAD+ levels (SRF^HKO mice [3]; NR-supplemented diet for 2 weeks from D5 to D20): rescued
- myocardial NAD+ levels (SRF^HKO mice [3]; i.p. daily 1 μmole/g body weight from D8 to D15 after SRF inactivation): preserved
- myocardial NAD+ levels (TAC mice [4]): significantly higher
